This is an account of results in patent US5525604A, “4-aminopyrimidine derivatives” (Ono Pharmaceutical Co., Ltd., priority 1994, dated 1996).

The target in test [1] is cGMP-PDE (Homo sapiens, UniProt O76074). Briefly: Inhibitory effect on cGMP-PDE (PDE IC isolated from human platelets, 3H-cGMP substrate). The settings on record: 0.2 μM 3H-cGMP, pH 8.0, 2.5% DMSO. The format is biochemical.
For test [2], the target named is T1, TXA2 synthetase (Rattus norvegicus, UniProt P49430).
T1 construct: whole blood was collected from abdominal aorta; from tissue; host or cells: heparinized whole blood of male Wistar rats (mainly platelets)
T1 sequence (P49430 1-533): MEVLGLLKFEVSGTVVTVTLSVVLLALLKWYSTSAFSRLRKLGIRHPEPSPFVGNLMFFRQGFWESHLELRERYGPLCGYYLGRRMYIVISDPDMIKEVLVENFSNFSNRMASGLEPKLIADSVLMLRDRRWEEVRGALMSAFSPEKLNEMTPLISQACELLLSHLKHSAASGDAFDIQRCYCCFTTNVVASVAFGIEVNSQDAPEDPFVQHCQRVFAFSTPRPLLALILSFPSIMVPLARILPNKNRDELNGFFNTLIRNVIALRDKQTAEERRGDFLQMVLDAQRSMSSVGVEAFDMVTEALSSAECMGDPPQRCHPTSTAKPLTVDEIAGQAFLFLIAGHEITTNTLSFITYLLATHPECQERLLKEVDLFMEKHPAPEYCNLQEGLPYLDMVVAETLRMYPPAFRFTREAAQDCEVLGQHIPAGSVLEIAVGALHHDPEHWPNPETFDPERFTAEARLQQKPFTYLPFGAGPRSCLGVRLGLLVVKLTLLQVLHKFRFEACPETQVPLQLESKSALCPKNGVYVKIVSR
The test is described as follows: Inhibitory effect on TXA2 synthetase (TXB2 by EIA in A23187-stimulated rat whole blood). The format is cell-based, rat (Male Wistar rats). The following applies: rat heparinized whole blood, Ca ionophore A23187, TXB2 by EIA, 37° C. On the procedure:
(2) Inhibitory effect on TXA2 synthetase
Male Wistar rats were starved overnight. 500 μL of heparinized (10 U/mL) whole blood was collected from abdominal aorta using polyethylene syringe (needle: 22 or 26 G). The blood freshly drawn from animal was preincubated with 5 μL Of test compound (concentration 10 μM) at 37° C. Five minutes later, 2.5 μL of 6 mM of Ca ionophore A23187 (final concentration of […]) was added into tube, and incubation mixture was further incubated for 15 min. The reaction was terminated by centrifugation of tubes at 12,000 rpm for 2 min. TXB2 content in the supernatant was determined by EIA as follows.
1 mL of 0.5M glycine-HCl buffer (pH 3.2) was added to 100 μL of sample. The samples were mixed well and centrifuged at 1,700 G for 10 min. at 4° C. The extracted supernatant was applied to a SEP-PAK (registered Trade Mark) C18 cartridge (Waters Assoc.). After washing with 10 mL of distilled water followed by 10 mL each of 15% ethanol and petroleum ether, the sample was eluted with 3 mL of ethyl acetate. The ethyl acetate fraction was evaporated to dryness under gentle N2 stream and the residue was dissolved in EIA buffer (final volume of 1 mL) following the addition of […] of 0.01M NaHCO3-NaOH buffer (pH 10.0). EIA for TXB2 was carried out according to a legend attached to the kit (Chyman Chemical Co., inc.) and calculated inhibition percent. Overall recovery of TXB2 in this extraction procedure was 90%..

Counter-ions that a name gives are not always drawn.

Regarding `COCCNc1nc(-n2ccnc2)ncc1Cc1cccc(OC)c1` [1(g), 2-(1-Imidazolyl)-5-(3-methoxyphenyl)methyl-4-(2-methoxyethyl)aminopyrimidine], the IC50 in test [1] was determined as 3800 nM.

In turn, `COCCNc1nc(-n2ccnc2)ncc1-c1cccs1` [1(x), 2-(1-Imidazolyl)-5-(2-thienyl)-4-(2-methoxyethyl)aminopyrimidine hydrochloride] gave an IC50 in test [1] of 6000 nM. The compound further had an inhibition at 10 µM in test [2] of 87%.

Take `Clc1ccc(CNc2nc(-n3ccnc3)ncc2-c2cccs2)cc1` [1(z), 2-(1-Imidazolyl)-5-(2-thienyl)-4-(4-chlorophenyl)methylaminopyrimidine hydrochloride]: in test [1], it took 61 nM to reach half-maximal inhibition (IC50). That is a double-digit nanomolar value.

`c1ccc(CNc2nc(-n3ccnc3)ncc2-c2nccs2)cc1` [1(o), 2-(1-Imidazolyl)-5-(2-thiazolyl)-4-phenylmethylaminopyrimidine hydrochloride] registered an IC50 in test [1] of 120 nM. Besides, in test [2], the inhibition at 10 µM is 65%.

For the compound `Cc1cnc(-n2ccnc2)nc1NCc1ccccc1` [1(e), 2-(1-Imidazolyl)-5-methyl-4-phenylmethylaminopyrimidine], the IC50 in test [1] amounted to 18000 nM.

In test [1], `c1ccc(CNc2nc(-n3ccnc3)ncc2Cc2ccccc2)cc1` [1(d), 2-(1-Imidazolyl)-5-phenylmethyl-4-phenylmethylaminopyrimidine] gave an IC50 of 1000 nM.

In test [1], `c1csc(-c2cnc(-n3ccnc3)nc2NCc2cccc3ccccc23)c1` [1(r), 2-(1-Imidazolyl)-5-(2-thienyl)-4-(1-naphthyl)methylaminopyrimidine] showed an IC50 of 350 nM. Compared with the last compound, the IC50 is about 2.9-fold lower.

`c1coc(CNc2nc(-n3ccnc3)ncc2-c2cccs2)c1` [1(u), 2-(1-Imidazolyl)-5-(2-thienyl)-4-(2-furyl)methylaminopyrimidine hydrochloride] registered an IC50 in test [1] of 1000 nM. The compound further yielded an inhibition at 10 µM in test [2] of 96%.

Regarding `c1cncc(-c2ncc(-c3cccs3)c(NCc3ccc4c(c3)OCO4)n2)c1` [Example 2, 2-(3-Pyridyl)-5-(2-thienyl)-4-(1,3-dioxaindan-5-yl)methylaminopyrimidine hydrochloride], in test [2], the inhibition at 10 µM is 75%.

Regarding `OCCOCCNc1nc(-n2ccnc2)ncc1-c1cccs1` [1(q), 2-(1-Imidazolyl)-5-(2-thienyl)-4-[2-(2-hydroxyethoxy)ethyl]aminopyrimidine hydrochloride], in test [1], the IC50 is 12500 nM. In test [2], this compound came in with an inhibition at 10 µM of 100%.

As to `c1ccc(CNc2nc(-n3ccnc3)ncc2Cn2ccnc2)cc1` [1(l), 2-(1-Imidazolyl)-5-(1-imidazolyl)methyl-4-phenylmethylaminopyrimidine], in test [1], inhibition was half-maximal at 35000 nM (IC50). The compound further yielded an inhibition at 10 µM in test [2] of 63%.

The compound `c1ccc(CNc2nc(-n3ccnc3)ncc2-c2cccs2)cc1` [1(n), 2-(1-Imidazolyl)-5-(2-thienyl)-4-phenylmethylaminopyrimidine hydrochloride] came in with an inhibition at 10 µM in test [2] of 90%.

`c1ccc(CNc2ccnc(-n3ccnc3)n2)cc1` [1(a), 2-(1-Imidazolyl)-4-phenylmethylaminopyrimidine]: the IC50 in test [1] worked out at 38000 nM.

Take `c1csc(-c2cnc(-n3ccnc3)nc2NCc2ccc3c(c2)OCO3)c1` [1(p), 2-(1-Imidazolyl)-5-(2-thienyl)-4-(1,3-dioxaindan-5-yl)methylaminopyrimidine hydrochloride]: 25 nM corresponded to half-maximal inhibition in test [1] (IC50). In test [2], this compound registered an inhibition at 10 µM of 90%.

Consider `c1csc(CNc2nc(-n3ccnc3)ncc2-c2cccs2)c1` [1(v), 2-(1-Imidazolyl)-5-(2-thienyl)-4-(2-thienyl)methylaminopyrimidine hydrochloride], for which it took 310 nM to reach half-maximal inhibition in test [1] (IC50). Moreover, in test [2], the inhibition at 10 µM turned out to be 100%.

On to `COc1ccc(Cc2cnc(-n3ccnc3)nc2NCCOCCO)cc1` [1(h), 2-(1-Imidazolyl)-5-(4-methoxyphenyl)methyl-4-[2-(2-hydroxyethoxy)ethyl]aminopyrimidine], for which, in test [1], the IC50 turned out to be 700 nM. Moreover, testing at 10 µM in test [2] gave an inhibition of 99%.

Take `c1ccc(CONc2nc(-n3ccnc3)ncc2-c2cccs2)cc1` [1(y), 2-(1-Imidazolyl)-5-(2-thienyl)-4-phenylmethoxyaminopyrimidine hydrochloride]: the IC50 in test [1] stood at 2700 nM. In test [2], the inhibition at 10 µM is 89%.

`c1ccc(-c2cnc(-n3ccnc3)nc2NCc2ccc3c(c2)OCO3)cc1` [1(bb)] registered an IC50 in test [1] of 14 nM. For the same compound, in test [2], testing at 10 µM gave an inhibition of 90%.

As to `COc1cccc(Cc2cnc(-n3ccnc3)nc2NCCOCCO)c1` [Example 1, 2-(1-Imidazolyl)-4-[2-(2-hydroxyethoxy)ethyl]amino-5-(3-methoxyphenyl)methylpyrimidine], 21000 nM corresponded to half-maximal inhibition in test [1] (IC50).

For the compound `CCc1cnc(-n2ccnc2)nc1NCc1ccccc1` [1(c), 2-(1-Imidazolyl)-5-ethyl-4-phenylmethylaminopyrimidine], the IC50 in test [1] was 2500 nM.

`COc1ccc(Cc2cnc(-n3ccnc3)nc2NCc2ccccc2)cc1` [1(j), 2-(1-Imidazolyl)-5-(4-methoxyphenyl)methyl-4-phenylmethylaminopyrimidine] returned an IC50 in test [1] of 780 nM. The compound also came in with an inhibition at 10 µM in test [2] of 94%.

For the compound `COCCNc1nc(-n2ccnc2)ncc1Cc1ccc(OC)cc1` [1(i), 2-(1-Imidazolyl)-5-(4-methoxyphenyl)methyl-4-(2-methoxyethyl)aminopyrimidine], in test [1], the midpoint of inhibition, the IC50, lay at 3500 nM.

Consider `COc1cccc(CNc2nc(-n3ccnc3)ncc2-c2cccs2)c1` [1(t), 2-(1-Imidazolyl)-5-(2-thienyl)-4-(3-methoxyphenyl)methylaminopyrimidine hydrochloride], for which, in test [1], half-maximal inhibition (IC50) required 230 nM. In test [2], the inhibition at 10 µM was found to be 100%.

`Cc1nc(-n2ccnc2)nc(NCc2ccccc2)c1C` [1(f), 2-(1-Imidazolyl)-5,6-dimethyl-4-phenylmethylaminopyrimidine]: the IC50 in test [1] turned out to be 3650 nM.

In test [1], `c1ccc(CNc2nc(-n3ccnc3)ncc2COc2ccccc2)cc1` [1(k), 2-(1-Imidazolyl)-5-phenoxymethyl-4-phenylmethylaminopyrimidine dihydrochloride] had an IC50 of 760 nM. This IC50 is about 4.8-fold lower than that of the compound before.

In turn, `c1cncc(CNc2nc(-n3ccnc3)ncc2-c2cccs2)c1` [1(w), 2-(1-Imidazolyl)-5-(2-thienyl)-4-(3-pyridyl)methylaminopyrimidine dihydrochloride] returned an IC50 in test [1] of 2000 nM. In test [2], the inhibition at 10 µM stood at 83%.

In test [1], `C=C(Cl)c1cnc(-n2ccnc2)nc1NCc1ccccc1` [1(m), 2-(1-Imidazolyl)-5-(1-chlorovinyl)-4-phenylmethylaminopyrimidine hydrochloride] came in with an IC50 of 1250 nM. In other words, the single-digit micromolar range.
